pIC50: −log10 of the molar value.

The nature of the experiment: Kinase Assay: In vitro kinase assays were carried out by using recombinant murine c-abl containing SH3, SH2 and kinase domains (residues 46-531) and full length immunoprecipitated Bcr-abl. Recombinant abl was expressed in Sf9 insect cells and purified as described above. Bcr-abl immune complexes were obtained with Ab-3 anti-abl monoclonal antibody (Oncogene Science) from Ba/F3.p210 lysates as previously described. 1 μg of recombinant abl or immunoprecipitated Bcr-abl (from 3×10^6 cells) were incubated with various concentrations of test compound (0.1, 1 and 10 M) in kinase buffer (50 mM Tris-HCl pH 7.5, 10 mM MgCl2, […], 1 mM DTT, 0.015% Brij 35), 100 μM ATP and 1 μCi [γ-32P]-ATP for 30 min at 30° C. (Calbiochem buffer and protocol). The reaction was stopped by addition of Laemmli buffer and the proteins were resolved by SDS-PAGE in a 4-20% gel. The phosphoproteins were visualized by autoradiography and the autophosphorylation quantitated using a phosphoimager (STORM, Molecular Devices).
What is called pIC50 is the IC50 on a negative log10 scale, so that one unit is a factor of ten. Consider `O=C(NC(=O)c1cc2c(Nc3ccc(OC(F)(F)F)cc3)ncnc2s1)c1cccc(C(F)(F)F)c1`, for which the pIC50 was 5.84. `O=C(NCCN1CCOCC1)c1cc2c(Nc3ccc(OC(F)(F)F)cc3)ncnc2s1`: the pIC50 is under 5.00. Next, `COc1cc(-c2cc(Nc3ccc(OC(F)(F)F)cc3)ncn2)co1`: 6.03.

Values taken from ChEMBL document CHEMBL5725409, “Small molecule myristate inhibitors of Bcr-abl and methods of use” (2017).
